Converted amounts (≈) assume the structure as drawn.
Tests used:
Experiment in all cases: MIC, microdilution broth method (NCCLS)
Format in all cases: cell-based
Details in all cases: 35° C., 16-20 hours
E. faecalis ATCC29212 = test system: E. faecalis ATCC29212
Method in brief: (§1)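 Actively growing broth cultures are turbidity-adjusted to give about 5×10^4 CFU/well, then added to two-fold compound dilutions in cation-adjusted Mueller-Hinton broth. After 16-20 hours at 35° C, growth is compared with untreated controls.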

H. influenzae ATCC49247 = test system: H. influenzae ATCC49247
Method in brief: as §1

S. pneumoniae ATCC49619 = test system: S. pneumoniae ATCC49619
Method in brief: as §1

S. aureus ATCC29213 = test system: S. aureus ATCC29213
Method in brief: as §1

E. coli OC2605 = test system: E. coli OC2605
Method in brief: as §1

Row | Structure (SMILES) | MIC (C: E. faecalis ATCC29212) (E. faecalis ATCC29212) | MIC (E: H. influenzae ATCC49247) (H. influenzae ATCC49247) | MIC (D: S. pneumoniae ATCC49619) (S. pneumoniae ATCC49619) | MIC (B: S. aureus ATCC29213) (S. aureus ATCC29213) | MIC (A: E. coli OC2605) (E. coli OC2605)
1 | CC[C@H]1OC(=O)[C@H](C)C(=O)[C@H](C)[C@@H](O[C@@H]2O[C@H](C)C[C@H](N(C)C)[C@H]2O)[C@](C)(OC(=O)NN(CC)CCc2ccc(-c3ncccn3)cc2)C[C@@H](C)C(=O)[C@H](C)[C@H]2NC(=O)O[C@@]21C [Compound 804] | 0.12 µg/mL (≈ 0.138 µM) | 8 µg/mL (≈ 9.23 µM) | 0.03 µg/mL (≈ 0.0346 µM) | 0.5 µg/mL (≈ 0.577 µM) | >16 µg/mL
2 | CC[C@H]1OC(=O)[C@H](C)C(=O)[C@H](C)[C@@H](O[C@@H]2O[C@H](C)C[C@H](N(C)C)[C@H]2O)[C@](C)(OC(=O)NNCc2ccc(-c3cccnn3)cc2)C[C@@H](C)C(=O)[C@H](C)[C@H]2NC(=O)O[C@@]21C [Compound 675] | 0.12 µg/mL (≈ 0.145 µM) | 2 µg/mL (≈ 2.42 µM) | 0.06 µg/mL (≈ 0.0727 µM) | 0.5 µg/mL (≈ 0.606 µM) | 16 µg/mL (≈ 19.4 µM)
3 | CCC1OC(=O)C(C)C(=O)C(C)C(OC2OC(C)CC(N(C)C)C2O)C(C)(OC(=O)NOCc2ccccc2)CC(C)C(=O)C(C)C2NC(=O)OC12C (stereo not shown) [Compound 570] | 0.25 µg/mL (≈ 0.334 µM) | 4 µg/mL (≈ 5.35 µM) | 0.03 µg/mL (≈ 0.0401 µM) | 1 µg/mL (≈ 1.34 µM) | >16 µg/mL
4 | CCC1OC(=O)C(C)C(=O)C(C)C(OC2OC(C)CC(N(C)C)C2O)C(C)(OC(=O)n2cccc2)CC(C)C(=O)C(C)C2NC(=O)OC12C (stereo not shown) [Compound 2] | 8 µg/mL (≈ 11.6 µM) | >16 µg/mL | 0.5 µg/mL (≈ 0.723 µM) | >16 µg/mL | >16 µg/mL
5 | CCC1OC(=O)C(C)C(=O)C(C)C(OC2OC(C)CC(N(C)C)C2O)C(C)(OC(=O)OCC#Cc2ccc(-c3ncccn3)cc2)CC(C)C(=O)C(C)C2NC(=O)OC12C (stereo not shown) [Compound 80] | 0.12 µg/mL (≈ 0.144 µM) | 2 µg/mL (≈ 2.4 µM) | 0.03 µg/mL (≈ 0.0359 µM) | 0.25 µg/mL (≈ 0.299 µM) | 16 µg/mL (≈ 19.2 µM)

Further lines, results first:

Row | MIC (C: E. faecalis ATCC29212) (E. faecalis ATCC29212) | MIC (E: H. influenzae ATCC49247) (H. influenzae ATCC49247) | MIC (D: S. pneumoniae ATCC49619) (S. pneumoniae ATCC49619) | MIC (B: S. aureus ATCC29213) (S. aureus ATCC29213) | MIC (A: E. coli OC2605) (E. coli OC2605) | Structure (SMILES)
6 | 0.06 µg/mL (≈ 0.074 µM) | 2 µg/mL (≈ 2.47 µM) | 0.03 µg/mL (≈ 0.037 µM) | 0.12 µg/mL (≈ 0.148 µM) | 8 µg/mL (≈ 9.87 µM) | CCC1OC(=O)C(C)C(=O)C(C)C(OC2OC(C)CC(N(C)C)C2O)C(C)(OC(=O)OCc2ccc(-c3ncccn3)cc2)CC(C)C(=O)C(C)C2NC(=O)OC12C (stereo not shown) [Compound 77]
7 | 0.12 µg/mL (≈ 0.15 µM) | 2 µg/mL (≈ 2.51 µM) | 0.03 µg/mL (≈ 0.0376 µM) | 0.5 µg/mL (≈ 0.627 µM) | >16 µg/mL | CC[C@H]1OC(=O)[C@H](C)C(=O)[C@H](C)[C@@H](O[C@@H]2O[C@H](C)C[C@H](N(C)C)[C@H]2O)[C@](C)(OC(=O)NNCc2ccc3ncccc3c2)C[C@@H](C)C(=O)[C@H](C)[C@H]2NC(=O)O[C@@]21C [Compound 661]
8 | 0.06 µg/mL (≈ 0.0717 µM) | 2 µg/mL (≈ 2.39 µM) | 0.03 µg/mL (≈ 0.0358 µM) | 0.12 µg/mL (≈ 0.143 µM) | 8 µg/mL (≈ 9.56 µM) | CCC1OC(=O)C(C)C(=O)C(C)C(OC2OC(C)CC(N(C)C)C2O)C(C)(OC(=O)OCC=Cc2ccc(-c3ncccn3)cc2)CC(C)C(=O)C(C)C2NC(=O)OC12C (stereo not shown) [Compound 7]

Source: US6825170B2, “6-O-acyl ketolide antibacterials” (Ortho-McNeil Pharmaceutical, Inc., priority 2001, dated 2004)
